The conditions of this series: 101.33 kPa, Liquid, Vibrating tube method.

Numbers after ± are expanded uncertainties.

By mass density is commonly meant mass per unit of volume. On to `NCCO` [2-aminoethan-1-ol], for which, for the setting “297.15 K”, the mass density is reported as 1012.94 ± 0.13 kg/m3.

In the case of `CO` [methanol], the mass density (298.15 K) worked out at 786.58 ± 0.13 kg/m3.
